Tests used:
[1] = test system: ovariectomized (OVX) female Sprague-Dawley rats; test: Antiosteoporosis activity in vivo: bone mineral density in ovariectomized rats; set-up: species or system rat; conditions: oral once daily days 1-30 post-ovariectomy
Procedure: Test Procedure for Evaluation of Antiosteoporosis Activity in Vivo:
(§1) The in vivo antiosteoporosis activity is evaluated in colony-bred adult (3-4 month old) female Sprague-Dawley rats or female retired breeder Sprague-Dawley rats ([…]; parity≧3). Animals are bilaterally ovariectomized (OVX) under light ether anesthesia and treated with the compound of the present invention, 17-alfa-ethynylestradiol (EE) or the vehicle once daily on days 1-30 post-ovariectomy (day 1: day of bilateral ovariectomy) by the oral route. One group consisting of females is sham operated and treated similarly with the vehicle. Animals of all the groups are autopsied 24 h after the last treatment. Before autopsy, 24 h fasting urine samples are collected in fresh containers using all-glass metabolic cages and stored at −20° C. until analyzed for calcium, phosphorus and creatinine. At autopsy, about 5 ml blood samples are collected by cardiac puncture from each rat under light ether anesthesia and serum is isolated and stored at −20° C. until analyzed for total and bone specific alkaline phosphatase, osteocalcin and calcium. Uterus of each rat is carefully excised, gently blotted, weighed and fixed for histology. Representative sections (5 μm) from each uterus are stained with haematoxylin and eosin. Femur and tibia of each rat are then dissected free of adhering tissue, fixed in 70% ethanol in physiological saline and stored at −20° C. until Bone Mineral Density (BMD) measurement. Before autopsy, whole body scan of each rat for measurement of BMD is performed on an Hologic QDR-4500A fan-beam densitometer, calibrated daily with Hologic hydroxyapatite anthropomorphic spine phantom using manufacturer provided software for small animals. BMD measurement of isolated bones is performed using identical regions of interest. Serum total alkaline phosphatase, osteocalcin, calcium ion content and urinary calcium and creatinine are estimated colorimetrically using commercial kits (Table 2).

retired breeder OVX rats = test: Estrogen agonistic activity: uterine weight and morphometry in retired breeder OVX rats; format: in vivo, rat
Procedure: as §1
(§2) For image analysis in estrogen agonistic activity evaluation studies, paraffin sections (6 μm thick) of the uterus stained with haematoxylin and eosin were analyzed microscopically. To determine changes in uterine tissue components, areas of whole uterus and endometrium and the thickness of uterine epithelium were measured using a computer-image analysis system (BioVis, Expert Vision, India). Briefly, microscopic images of uterus acquired through a CCD camera were loaded in to the image analysis program and spatially calibrated against a stage micrometer image taken at the same magnification. Using thresholding and line tools, the regions for measurements were selected and the area (mm^2) of whole uterine transection excluding the luminal space, the area (mm^2) of the endometrium only, and the thickness (μm) of luminal epithelial lining were measured. Luminal epithelial thickness data was the average of measurements made at 6 randomly selected sites of the lining (Table 7).

[2] = test system: ovariectomized (OVX) female Sprague-Dawley rats; test: Anti-hyperlipidaemic activity: blood serum total cholesterol in OVX rats; format: in vivo, rat; conditions: days 1-30; for Total Cholesterol: blood serum
Procedure: Test Procedure for Evaluation of Anti-Hyperlipidaemic Activity:
The in vivo anti-hyperlipidaemic activity is evaluated in colony-bred adult (3-4 month old) female Sprague-Dawley rats or female retired breeder Sprague-Dawley rats ([…]; parity≧3). Animals are bilaterally ovariectomized (OVX) under light ether anesthesia and treated with the compound of the present invention, 17-alfa-ethynylestradiol (EE) or the vehicle once daily on days 1-30 post-ovariectomy (day 1: day of bilateral ovariectomy) by the oral route. One group consisting of females is sham operated and treated similarly with the vehicle. Animals of all the groups are autopsied 24 h after the last treatment. At autopsy, about 5 ml blood samples are collected by cardiac puncture from each rat under light ether anesthesia and serum is isolated and stored at −20° C. until analyzed for total cholesterol. The total cholesterol concentration is measured by a timed-end point method using a Beckman Synchron CX autoanalyser. In the reaction, cholesterol estrase hydrolyses cholesterol esters to free cholesterol and fatty acids. Free cholesterol is oxidized to cholestene-3-one and H2O2 by cholesterol oxidase. Peroxidase catalyses the reaction of H2O2 with 4-amino antipyrine and phenol to produce a colored quinoneimine product. Absorbance is recorded at 520 nm (Table 3).

immature OVX rats [3] = test: Estrogen agonistic activity: uterine weight and morphometry in immature OVX rats; format: in vivo, rat
Procedure: Test Procedure for Evaluation of Estrogen Agonistic Activity:
Twenty-one-day-old immature female rats are bilaterally ovariectomized under light ether anesthesia and, after post-operative rest for 7 days, are randomized into different treatment groups. Each rat receives the compound of the invention once daily for 3 consecutive days on days 28-30 of age. A separate group consisting of animals receiving only the vehicle for similar duration serves as control. At autopsy 24 h after the last treatment on day 31 of age, vaginal smear of each rat is taken and uterus is carefully excised, gently blotted, weighed and fixed for histology and histomorphometry using image analysis. Premature opening of vagina, cornification of vaginal epithelium, increase in uterine fresh weight, total uterine and endometrial area and uterine luminal epithelial cell height are taken as parameters for evaluation of estrogen agonistic activity in comparison to rats of vehicle control group (Table 6).
as §2

MCF-7 cells = test: Antiproliferative/cytotoxic activity in cultured MCF-7 cells (SRB assay); conditions: 48 h incubation
immature OVX rats [4] = test: Estrogen antagonistic activity: inhibition of EE-induced uterine weight gain in immature OVX rats; format: in vivo, rat; conditions: daily dose 10 mg/kg with 0.02 mg/kg 17-alfa-ethynylestradiol, 3 days
Procedure: Test Procedure for Evaluation of Estrogen Antagonistic Activity:
Twenty-one-day-old immature female rats are bilaterally ovariectomized under light ether anesthesia and after post-operative rest for 7 days, are randomized into different treatment groups. Each rat receives the compounds of the invention and 0.02 mg/kg dose of 17-alfa-ethynylestradiol in 10% ethanol-distilled water once daily for 3 consecutive days on days 28-30 of age. A separate group consisting of animals receiving only 17-alfa-ethynylestradiol (0.02 mg/kg) in 10% ethanol-distilled water for similar duration are used for comparison. At autopsy on day 31 of age, vaginal smear of each rat is taken and uterus is carefully excised, gently blotted, weighed and fixed for histology and histomorphometry using image analysis. Inhibition in 17-alfa-ethynylestradiol-induced premature opening of vagina, cornification of vaginal epithelium, increase in uterine fresh weight, total uterine and endometrial area and uterine luminal epithelial cell height are taken as parameters for evaluation of estrogen antagonistic activity (Table 8).

[5] = test system: chick fetal bones in culture; test: Inhibition of PTH-induced resorption of 45Ca from chick fetal bones in culture (antiresorptive activity in vitro); format: cell-based; conditions: for T/C Ratio: PTH-induced 45Ca resorption, 96 h culture
Procedure: Test Procedure for Evaluation of Antiosteoporosis (Antiresorptive) Activity in Vitro:
Test solutions of the compounds of the present invention are prepared in appropriate solvents in concentration range of 5 millimolar to 400 millimolar, most preferably in concentrations of 20 millimolar. 5 μl of each concentration are used for evaluation of antiresorptive activity in vitro. In control experiments, 5 μl of appropriate solvent is used in lieu of test compound. Femur bones are isolated from chick embryos on day 11 post-ovulation. The adhering soft connective tissue is completely removed. Each femur bone is then placed in a drop of phosphate buffered saline (PBS) and is transferred to BGJb culture medium containing ^45CaCl2 and incubated for 2 h. Labeled femur bones are washed 2-3 times with PBS and transferred to BGJb medium containing parathyroid hormone and cultured for 96 h in the presence or absence of the compound of invention or the vehicle in BGJb medium. Contralateral femur of each fetus serves as corresponding control. Culture medium with the respective treatment in each well is changed after 48 h. On termination of the culture at 96 h, bones are transferred to 0.1 N HCl for 24 h. Radioactivity due to ^45Ca in the spent medium collected at 48 and 96 h of culture and HCl extract at 96 h of culture is quantified by Liquid Scintillation Spectrophotometer in 10 ml of the scintillation fluid. Bone resorbing activity is expressed as percentage of ^45Ca released into the culture medium and the effect of the compound of invention as percent of the corresponding contra-lateral control or T/C ratio as shown below:
Appropriate solvents are selected from solvents like water, normal saline, phosphate buffered saline, phosphate buffer, DMSO alone or in a suitable combination thereof.
It was devoid of any pos-coital antifertility and estrogenic activities in rats.

Compound: C#C[C@]1(O)CC[C@H]2[C@@H]3CCc4cc(O)ccc4[C@H]3CC[C@@]21C [EE, 17-alfa-ethynylestradiol, reference compound]
- Increase in BMD (g/cm^2): Percent of OVX + vehicle treatment group, Percent Increase ([1]; Femur Global): 16.1%
- Increase in BMD (g/cm^2): Percent of OVX + vehicle treatment group, Percent Increase ([1]; Femur Neck): 13.5%
- Increase in BMD (g/cm^2): Percent of OVX + vehicle treatment group, Percent Increase ([1]; Tibia Global): 3.8%
- Increase in BMD (g/cm^2): Percent of OVX + vehicle treatment group, Percent Increase ([1]; Tibia proximal): 25.2%
- Endometrium Epithelial Cell Height (retired breeder OVX rats; daily dose 0.5 mg/kg): 46.36 μm
- Endometrium Total Area (retired breeder OVX rats; daily dose 0.5 mg/kg): 4.07 mm^2
- Increase in uterine weight: Percent of OVX + vehicle treatment group, Percent Increase (retired breeder OVX rats; daily dose 0.5 mg/kg): 260%
- Uterus Total Area (retired breeder OVX rats; daily dose 0.5 mg/kg): 6.86 Mm^2
- Total Cholesterol ([2]; daily dose 0.50 mg/kg oral): <5 mg/dL
- Endometrium Epithelial Cell Height (immature OVX rats [3]; daily dose 0.01 mg/kg): 33.65 μm
- Endometrium Total Area (immature OVX rats [3]; daily dose 0.01 mg/kg): 0.57 mm^2
- Increase in uterine weight: Percent of OVX + vehicle treatment group, Percent Increase (immature OVX rats [3]; daily dose 0.01 mg/kg): 419%
- Uterus Total Area (immature OVX rats [3]; daily dose 0.01 mg/kg): 1.21 Mm^2

Compound: CSc1ccc(C(=O)c2cccc3ccccc23)cc1 [Example 1, (4-Methylthiophenyl)-(naphth-1-yl)-ketone]
- Increase in BMD (g/cm^2): Percent of OVX + vehicle treatment group, Percent Increase ([1]; Femur Global): 8%
- Increase in BMD (g/cm^2): Percent of OVX + vehicle treatment group, Percent Increase ([1]; Femur Neck): 13%
- Increase in BMD (g/cm^2): Percent of OVX + vehicle treatment group, Percent Increase ([1]; Tibia Global): 3.7%
- Increase in BMD (g/cm^2): Percent of OVX + vehicle treatment group, Percent Increase ([1]; Tibia proximal): 13.8%
- Endometrium Epithelial Cell Height (retired breeder OVX rats; daily dose 10 mg/kg): 9.63 μm
- Endometrium Total Area (retired breeder OVX rats; daily dose 10 mg/kg): 0.37 mm^2
- Increase in uterine weight: Percent of OVX + vehicle treatment group, Percent Increase (retired breeder OVX rats; daily dose 10 mg/kg): 41%
- Uterus Total Area (retired breeder OVX rats; daily dose 10 mg/kg): 1.38 Mm^2
- Total Cholesterol ([2]; daily dose 10 mg/kg oral): 20.00 mg/dL
- % Change in blood serum total cholesterol concentration ([2]; daily dose 10 mg/kg oral): 21.94%
- LC50 (MCF-7 cells): Inactive
- Percent inhibition in EE induced uterine weight gain (immature OVX rats [4]): 32%
- T/C Ratio ([5]; 25 μM): 0.77
- T/C Ratio ([5]; 50 μM): 0.60
- T/C Ratio ([5]; 100 μM): 0.44
- Endometrium Epithelial Cell Height (immature OVX rats [3]; daily dose 10 mg/kg): 7.16 μm
- Endometrium Total Area (immature OVX rats [3]; daily dose 10 mg/kg): 0.085 mm^2
- Increase in uterine weight: Percent of OVX + vehicle treatment group, Percent Increase (immature OVX rats [3]; daily dose 10 mg/kg): 16%
- Uterus Total Area (immature OVX rats [3]; daily dose 10 mg/kg): 0.105 Mm^2

Compound: CS(=O)(=O)c1ccc(C(=O)c2cccc3ccccc23)cc1 [Example 2, (4-Methylsulfonylphenyl)-naphth-1-yl-ketone]
- melting point: 150 °C

Compound: CSc1ccc(C(O)c2cccc3ccccc23)cc1 (stereo not drawn) [Example 3, (4-Methylthiophenyl)-naphth-1-yl-carbinol]
- melting point: 80 °C
- T/C Ratio ([5]; 50 μM): 1.41

Compound: CS(=O)(=O)c1ccc(C(O)c2cccc3ccccc23)cc1 (stereo not drawn) [Example 4, (4-Methylsulfonylphenyl)-naphth-1-yl-carbinol]
- melting point: 160 °C
- T/C Ratio ([5]; 100 μM): 0.97

Compound: CS(=O)(=O)c1ccc(C(=O)c2ccc3ccccc3c2)cc1 [Example 8, (4-Methylsulfonylphenyl)-naphth-2-yl-ketone]
- melting point: 160 °C

Compound: CS(=O)(=O)c1ccc(C(O)c2ccc3ccccc3c2)cc1 (stereo not drawn) [Example 9, (4-Methylsulfonylphenyl)-naphth-2-yl-carbinol]
- melting point: 100 °C
- T/C Ratio ([5]; 100 μM): 1.15

Compound: CCSc1ccc(C(=O)c2cccc3ccccc23)cc1 [Example 11, (4-Ethylthiophenyl)-naphth-1-yl-ketone]
- T/C Ratio ([5]; 100 μM): 0.77

Compound: O=C(c1ccc(OCCN2CCCCC2)cc1)c1c(-c2ccc(O)cc2)sc2cc(O)ccc12 [Raloxifene, reference compound]
- T/C ([5]; chick foetal bone assay, concentration not stated): 0.6

— US7582653B2, “Mercaptophenyl naphthyl methane compounds and synthesis thereof” (Council of Scientific & Industrial Research, priority 2003, dated 2009)
